Data as given in patent publication US20050075361A1 (priority 2002, published 2005).
Read-outs that look alike come from different tables or passages of the source.

How the values were obtained:
[1] = cited from earlier work
[2] = test system: male Sprague-Dawley rats; conditions: rat, in vivo
[3] = parenteral, weight basis; cited from earlier work
[4] = cited from earlier work; remark: listed apart in the source
[5] = intravenous, single dose of about 0.3 mg

Structure (SMILES)	mean duration of analgesia ([1]; single intramuscular or intravenous dose of 0.2 to 0.3 mg or 2 to 4 μg/kg)	Analgesic duration [2]	duration of analgesic action [2] [h]	Analgesic duration ([2]; sc)	duration of action ([2]; sc) [h]	duration of action ([1]; intramuscular or intravenous injection) [h]	analgesic potency relative to meperidine [3]	analgesic potency relative to pentazocine [3]	Cmax ([4]; 0.4 mg sublingual dose) [ng/mL]	Tmax ([4]; 0.4 mg sublingual dose) [h]	systemic availability ([4]; 0.4 mg sublingual dose) [%]	Total plasma clearance ([4]; conscious postoperative patients)	mean peak plasma buprenorphine concentration ([4]; intramuscular second 0.3-mg dose 3 hours after initial intravenous dose)	plasma concentration ([4]; intramuscular second 0.3-mg dose, after about 3 hours)	plasma concentration ([4]; intravenous about 0.3 mg, after about 5 minutes)	plasma concentration ([4]; intravenous about 0.3 mg, after about 3 hours)	mean peak plasma drug concentration [4, 5]	time of peak plasma concentration [4, 5] [min]
CO[C@@]12CC[C@@]3(C[C@@H]1[C@](C)(O)C(C)(C)C)[C@H]1Cc4ccc(O)c5c4[C@@]3(CCN1CC1CC1)[C@H]2O5.Cl [Buprenorphine HCl, buprenorphine hydrochloride]	six	5 h	3 to 5	–	–	–	–	–	–	–	–	–	–	–	–	–	–	–
CO[C@@]12CCC3(C[C@@H]1C(C)(O)C(C)(C)C)[C@H]1Cc4ccc(O)c5c4[C@@]3(CCN1CC1CC1)[C@H]2O5 (stereo partly drawn) [Buprenorphine base, (5α,7α(S)-17-cyclopropyl-methyl)-α-(1,1-dimethylethyl)-4,5-epoxy-18,19-dihydro-3-hydroxy-6-methoxy-α-methyl-6,14-ethenomorphinan-7-methanol]	–	48; 48; 50 h	48 to 50	48; 50; 48 h	48 to 50	–	–	–	–	–	–	–	–	–	–	–	–	–
CO[C@@]12CCC3(C[C@@H]1C(C)(O)C(C)(C)C)[C@H]1Cc4ccc(O)c5c4[C@@]3(CCN1CC1CC1)[C@H]2O5 (stereo partly drawn) [Buprenorphine, (5α,7α(S)-17-cyclopropyl-methyl)-α-(1,1-dimethylethyl)-4,5-epoxy-18,19-dihydro-3-hydroxy-6-methoxy-α-methyl-6,14-ethenomorphinan-7-methanol]	–	–	–	–	–	6 to 8	about 600 times	about 200 times	0.5 ± 0.06	3.5 ± 0.667	57.7±6	approximately 0.28 L/minute	about 3.6 ng/mL	about 0.4 ng/mL	about 9 ng/mL	about 0.4 ng/mL	about 18 ng/mL	≤ 2
